Holding throughout (assay): cell-based
For assay [1], the target named is hNav1.5 (Homo sapiens, UniProt Q14524). Particulars: IWQ Use Nav1.5 (μM).
The target of assay [2] is hNav1.3 (Homo sapiens, UniProt Q9NY46). Particulars: Table 23; IonWorks Quattro, use; […]; read-out: IWQ Use Nav1.3.
The target in assay [3] is hNav1.7 (Homo sapiens, UniProt Q15858).

Where two headings read alike, the source gives them in different places. Positions of bridges follow the written chain, without caps; N, C: chain ends. Non-standard residues stand in square brackets, D forms with d. Residues, ends and D or L forms follow the SMILES beside them. Lys(Me2) = CN(C)CCCC[C@H](N)C(=O)O

Sequence of hNav1.7 (Q15858 whole entry, looked up): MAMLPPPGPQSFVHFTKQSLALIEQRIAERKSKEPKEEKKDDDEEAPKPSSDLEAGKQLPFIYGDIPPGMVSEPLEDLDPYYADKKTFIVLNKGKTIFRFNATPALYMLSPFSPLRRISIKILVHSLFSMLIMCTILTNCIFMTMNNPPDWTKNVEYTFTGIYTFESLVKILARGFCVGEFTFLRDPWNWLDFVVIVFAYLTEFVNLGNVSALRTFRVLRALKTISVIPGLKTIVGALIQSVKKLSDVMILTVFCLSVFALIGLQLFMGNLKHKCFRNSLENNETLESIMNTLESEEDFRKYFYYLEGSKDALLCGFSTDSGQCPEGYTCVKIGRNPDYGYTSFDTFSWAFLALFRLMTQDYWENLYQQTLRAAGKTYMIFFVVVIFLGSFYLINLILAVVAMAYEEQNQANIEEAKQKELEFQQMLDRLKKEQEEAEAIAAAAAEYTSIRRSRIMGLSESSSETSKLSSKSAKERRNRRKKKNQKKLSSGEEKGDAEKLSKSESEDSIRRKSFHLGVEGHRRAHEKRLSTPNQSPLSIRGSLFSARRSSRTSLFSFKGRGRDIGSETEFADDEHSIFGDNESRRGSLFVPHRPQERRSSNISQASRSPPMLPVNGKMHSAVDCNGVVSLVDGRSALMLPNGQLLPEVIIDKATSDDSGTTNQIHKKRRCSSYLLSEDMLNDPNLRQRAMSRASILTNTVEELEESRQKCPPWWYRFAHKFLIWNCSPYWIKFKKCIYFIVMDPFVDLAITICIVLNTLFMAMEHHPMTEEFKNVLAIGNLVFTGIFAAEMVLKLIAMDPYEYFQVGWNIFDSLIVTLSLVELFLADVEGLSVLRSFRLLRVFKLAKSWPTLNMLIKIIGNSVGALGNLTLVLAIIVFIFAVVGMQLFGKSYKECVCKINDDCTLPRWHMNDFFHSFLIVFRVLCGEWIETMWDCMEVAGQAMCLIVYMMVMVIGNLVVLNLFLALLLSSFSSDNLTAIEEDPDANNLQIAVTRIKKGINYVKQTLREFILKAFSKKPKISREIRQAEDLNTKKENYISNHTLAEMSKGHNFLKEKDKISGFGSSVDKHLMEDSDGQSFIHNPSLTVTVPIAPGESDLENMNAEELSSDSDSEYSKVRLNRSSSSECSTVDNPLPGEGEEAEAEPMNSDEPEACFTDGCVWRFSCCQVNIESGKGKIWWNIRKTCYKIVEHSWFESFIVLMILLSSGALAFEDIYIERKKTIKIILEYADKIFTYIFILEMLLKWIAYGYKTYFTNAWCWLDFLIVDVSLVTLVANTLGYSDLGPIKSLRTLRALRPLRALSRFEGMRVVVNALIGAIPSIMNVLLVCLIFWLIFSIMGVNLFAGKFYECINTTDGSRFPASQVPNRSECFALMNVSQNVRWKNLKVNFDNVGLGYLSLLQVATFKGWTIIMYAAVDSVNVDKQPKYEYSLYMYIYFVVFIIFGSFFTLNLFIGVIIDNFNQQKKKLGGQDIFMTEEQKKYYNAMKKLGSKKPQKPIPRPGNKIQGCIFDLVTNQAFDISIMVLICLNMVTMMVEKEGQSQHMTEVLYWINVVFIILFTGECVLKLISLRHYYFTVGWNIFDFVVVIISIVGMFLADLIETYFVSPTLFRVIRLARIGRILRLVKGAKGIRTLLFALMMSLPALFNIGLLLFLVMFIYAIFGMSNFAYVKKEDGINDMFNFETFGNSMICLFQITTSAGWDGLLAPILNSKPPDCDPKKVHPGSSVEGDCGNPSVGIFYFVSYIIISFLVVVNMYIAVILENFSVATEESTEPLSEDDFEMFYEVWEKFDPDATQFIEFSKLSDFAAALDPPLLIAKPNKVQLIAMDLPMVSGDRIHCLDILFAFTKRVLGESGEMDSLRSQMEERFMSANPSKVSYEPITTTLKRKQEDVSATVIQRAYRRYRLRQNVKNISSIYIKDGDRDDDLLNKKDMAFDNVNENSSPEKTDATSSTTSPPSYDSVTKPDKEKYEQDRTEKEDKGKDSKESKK
Sequence of hNav1.5 (Q14524 whole entry, looked up): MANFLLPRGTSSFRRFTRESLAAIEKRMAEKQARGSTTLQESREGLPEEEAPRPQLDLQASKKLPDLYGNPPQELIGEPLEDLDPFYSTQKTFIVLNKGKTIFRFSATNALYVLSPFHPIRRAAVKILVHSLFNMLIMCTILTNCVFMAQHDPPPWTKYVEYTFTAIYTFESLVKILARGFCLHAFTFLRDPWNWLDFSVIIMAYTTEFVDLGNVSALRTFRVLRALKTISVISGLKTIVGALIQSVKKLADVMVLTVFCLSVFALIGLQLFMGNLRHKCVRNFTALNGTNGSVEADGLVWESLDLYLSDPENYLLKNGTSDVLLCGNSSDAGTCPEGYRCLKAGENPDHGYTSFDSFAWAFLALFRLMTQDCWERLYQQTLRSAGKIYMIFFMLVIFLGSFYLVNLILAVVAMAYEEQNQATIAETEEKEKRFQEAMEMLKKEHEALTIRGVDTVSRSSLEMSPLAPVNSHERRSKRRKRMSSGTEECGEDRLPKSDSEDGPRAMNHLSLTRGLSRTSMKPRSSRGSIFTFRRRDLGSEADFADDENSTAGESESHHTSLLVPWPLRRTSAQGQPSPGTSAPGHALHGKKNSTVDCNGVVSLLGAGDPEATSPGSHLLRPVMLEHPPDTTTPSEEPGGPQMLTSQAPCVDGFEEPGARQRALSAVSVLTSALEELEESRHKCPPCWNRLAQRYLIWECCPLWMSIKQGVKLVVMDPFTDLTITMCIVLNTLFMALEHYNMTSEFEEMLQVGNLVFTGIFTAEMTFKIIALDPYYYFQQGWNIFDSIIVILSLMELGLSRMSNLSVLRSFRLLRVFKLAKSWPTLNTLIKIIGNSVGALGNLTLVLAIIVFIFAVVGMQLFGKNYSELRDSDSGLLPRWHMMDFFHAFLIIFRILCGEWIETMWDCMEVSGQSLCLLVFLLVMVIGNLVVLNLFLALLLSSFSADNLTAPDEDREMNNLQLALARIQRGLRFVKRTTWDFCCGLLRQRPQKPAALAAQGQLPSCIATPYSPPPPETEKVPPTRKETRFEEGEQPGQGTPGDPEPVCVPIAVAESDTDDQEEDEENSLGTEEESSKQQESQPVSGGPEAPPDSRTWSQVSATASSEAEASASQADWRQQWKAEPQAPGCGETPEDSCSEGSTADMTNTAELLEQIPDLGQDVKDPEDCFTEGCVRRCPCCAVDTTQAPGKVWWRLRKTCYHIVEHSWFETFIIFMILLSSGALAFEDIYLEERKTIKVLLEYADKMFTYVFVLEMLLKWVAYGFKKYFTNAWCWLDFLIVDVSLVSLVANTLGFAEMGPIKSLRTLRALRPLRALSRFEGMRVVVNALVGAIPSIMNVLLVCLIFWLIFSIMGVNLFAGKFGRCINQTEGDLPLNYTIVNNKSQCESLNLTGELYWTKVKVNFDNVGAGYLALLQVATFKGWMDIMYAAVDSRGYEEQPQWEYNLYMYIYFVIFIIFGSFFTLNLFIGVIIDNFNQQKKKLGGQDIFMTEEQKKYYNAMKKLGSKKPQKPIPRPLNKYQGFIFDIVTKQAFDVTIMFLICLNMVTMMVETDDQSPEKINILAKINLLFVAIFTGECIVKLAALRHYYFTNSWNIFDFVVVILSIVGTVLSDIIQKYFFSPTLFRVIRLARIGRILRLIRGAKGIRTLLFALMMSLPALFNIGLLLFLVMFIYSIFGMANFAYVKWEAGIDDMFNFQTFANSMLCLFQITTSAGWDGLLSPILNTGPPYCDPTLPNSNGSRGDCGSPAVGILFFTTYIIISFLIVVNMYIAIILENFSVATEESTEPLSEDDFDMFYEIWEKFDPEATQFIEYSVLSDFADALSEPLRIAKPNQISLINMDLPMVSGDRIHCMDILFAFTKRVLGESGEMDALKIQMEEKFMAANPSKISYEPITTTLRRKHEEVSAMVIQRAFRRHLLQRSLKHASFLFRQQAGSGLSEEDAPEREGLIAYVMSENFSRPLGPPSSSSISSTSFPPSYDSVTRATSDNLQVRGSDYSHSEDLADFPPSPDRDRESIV

On to `CC[C@H](C)[C@@H]1NC(=O)[C@@H]2CSSC[C@@H]3NC(=O)[C@H](C(C)C)NC(=O)[C@H](CC(C)C)NC(=O)[C@H](CC(N)=O)NC(=O)[C@@H]4CCCN4C(=O)[C@H](CCCNC(=N)N)NC(=O)[C@H](CSSC[C@H](NC(=O)[C@@H](N)CC(=O)O)C(=O)N[C@@H](CC(C)C)C(=O)NCC(=O)N[C@@H](Cc4ccccc4)C(=O)N[C@@H](CCSC)C(=O)N[C@@H](CCCNC(=N)N)C(=O)N[C@@H](CCCCN)C(=O)N2)NC(=O)[C@H](CSSC[C@@H](C(=O)N[C@@H](CCCCN)C(=O)N[C@@H](Cc2ccc(O)cc2)C(=O)N[C@H](C(=O)N[C@@H](Cc2ccccc2)C(N)=O)C(C)C)NC(=O)[C@H](Cc2c[nH]c4ccccc24)NC(=O)[C@H](CCC(=O)O)NC(=O)[C@H](Cc2cnc[nH]2)NC(=O)[C@H]([C@@H](C)O)NC(=O)[C@H](CCCNC(=N)N)NC(=O)[C@H](CO)NC3=O)NC(=O)[C@H](CCCCN)NC(=O)[C@H](CC(=O)O)NC(=O)[C@H](CC(N)=O)NC(=O)[C@H](CC(=O)O)NC(=O)[C@@H]2CCCN2C1=O` [SEQ ID NO: 153, [Glu28]GpTx-1(1-34)] (H-DCLGFMRKCIPDNDKCCRPNLVCSRTHEWCKYVF-NH2; disulfide 2-17, 9-23, 16-30), for which the IC50 in assay [1] came out at 14.1 µM; in assay [2], 0.8 µM; in assay [3] (Nav1.7 Use IC50), 0.0501 µM.
With `CC[C@H](C)[C@@H]1NC(=O)[C@@H]2CSSC[C@@H]3NC(=O)[C@H](C(C)C)NC(=O)[C@H](CC(C)C)NC(=O)[C@H](CC(N)=O)NC(=O)[C@@H]4CCCN4C(=O)[C@H](CCCNC(=N)N)NC(=O)[C@H](CSSC[C@H](NC(=O)[C@@H](N)CC(=O)O)C(=O)N[C@@H](CC(C)C)C(=O)NCC(=O)N[C@@H](Cc4ccccc4)C(=O)N[C@@H](CCSC)C(=O)N[C@@H](CCCNC(=N)N)C(=O)N[C@@H](CCCCN)C(=O)N2)NC(=O)[C@H](CSSC[C@@H](C(=O)N[C@@H](CCCCN)C(=O)N[C@@H](Cc2ccc(O)cc2)C(=O)N[C@H](C(=O)N[C@@H](Cc2ccccc2)C(N)=O)C(C)C)NC(=O)[C@H](Cc2c[nH]c4ccccc24)NC(=O)[C@H](CCC(N)=O)NC(=O)[C@H](Cc2c[nH]cn2)NC(=O)[C@H]([C@@H](C)O)NC(=O)[C@H](CCCNC(=N)N)NC(=O)[C@H](CO)NC3=O)NC(=O)[C@H](CCCCN)NC(=O)[C@H](CC(=O)O)NC(=O)[C@H](CC(N)=O)NC(=O)[C@H](CC(=O)O)NC(=O)[C@@H]2CCCN2C1=O` [[Gln28]GpTx-1(1-34)] (H-DCLGFMRKCIPDNDKCCRPNLVCSRTHQWCKYVF-NH2; disulfide 2-17, 9-23, 16-30), the IC50 in assay [3] (read-out: Nav1.7 Use IC50) was determined as 0.004 µM.
Take `CSCC[C@@H]1NC(=O)[C@H](Cc2ccccc2)NC(=O)CNC(=O)[C@H](CC(C)C)NC(=O)[C@@H](NC(=O)[C@@H](N)CC(=O)O)CSSC[C@@H]2NC(=O)[C@@H]3CSSC[C@@H](C(=O)N[C@@H](CCCCN)C(=O)N[C@@H](Cc4ccc(O)cc4)C(=O)N[C@H](C(=O)N[C@@H](Cc4ccccc4)C(N)=O)C(C)C)NC(=O)[C@H](Cc4c[nH]c5ccccc45)NC(=O)[C@H](CCCCN)NC(=O)[C@H](Cc4cnc[nH]4)NC(=O)[C@H]([C@@H](C)O)NC(=O)[C@H](CCCNC(=N)N)NC(=O)[C@H](CO)NC(=O)[C@H](CSSC[C@H](NC(=O)[C@H](CCCCN)NC(=O)[C@H](CCCNC(=N)N)NC1=O)C(=O)N[C@@H](CCC(=O)O)C(=O)N1CCC[C@H]1C(=O)N[C@@H](CC(=O)O)C(=O)N[C@@H](CC(N)=O)C(=O)N[C@@H](CC(=O)O)C(=O)N[C@@H](CCCCN)C(=O)N3)NC(=O)[C@H](C(C)C)NC(=O)[C@H](CC(C)C)NC(=O)[C@H](CC(N)=O)NC(=O)[C@@H]1CCCN1C(=O)[C@H](CCCNC(=N)N)NC2=O` [[Glu10]GpTx-1(1-34)] (H-DCLGFMRKCEPDNDKCCRPNLVCSRTHKWCKYVF-NH2; disulfide 2-17, 9-23, 16-30): the IC50 in assay [3] (Nav1.7 Use IC50) stood at 0.002 µM.
The same measure, in the same setting: to `CC[C@H](C)[C@@H]1NC(=O)[C@@H]2CSSC[C@@H]3NC(=O)[C@H](C(C)C)NC(=O)[C@H](CC(C)C)NC(=O)[C@H](CC(N)=O)NC(=O)[C@@H]4CCCN4C(=O)[C@H](CCCNC(=N)N)NC(=O)[C@H](CSSC[C@H](NC(=O)[C@@H](N)CC(=O)O)C(=O)N[C@@H](CC(C)C)C(=O)NCC(=O)N[C@@H](Cc4ccccc4)C(=O)N[C@@H](CCSC)C(=O)N[C@@H](CCCNC(=N)N)C(=O)N[C@@H](CCCCN)C(=O)N2)NC(=O)[C@H](CSSC[C@@H](C(=O)N[C@@H](CCCCN)C(=O)N[C@@H](Cc2ccc(O)cc2)C(=O)N[C@H](C(=O)N[C@@H](Cc2ccccc2)C(N)=O)C(C)C)NC(=O)[C@H](Cc2c[nH]c4ccccc24)NC(=O)[C@H](CCCCN)NC(=O)[C@H](Cc2cnc[nH]2)NC(=O)[C@H]([C@@H](C)O)NC(=O)[C@H](CCCNC(=N)N)NC(=O)[C@H](CO)NC3=O)NC(=O)[C@H](CCCCN)NC(=O)[C@H](CC(=O)O)NC(=O)[C@H](CC(N)=O)NC(=O)[C@H](CC(=O)O)NC(=O)[C@H](CCC(=O)O)NC1=O` [[Glu11]GpTx-1(1-34)] (H-DCLGFMRKCIEDNDKCCRPNLVCSRTHKWCKYVF-NH2; disulfide 2-17, 9-23, 16-30) belongs 0.002 µM.
`CC[C@H](C)[C@@H]1NC(=O)[C@@H]2CSSC[C@@H]3NC(=O)[C@H](C(C)C)NC(=O)[C@H](CC(C)C)NC(=O)[C@H](CC(N)=O)NC(=O)[C@@H]4CCCN4C(=O)[C@H](CCCCN(C)C)NC(=O)[C@H](CSSC[C@H](NC(=O)[C@@H](N)CC(=O)O)C(=O)N[C@@H](CC(C)C)C(=O)NCC(=O)N[C@@H](Cc4ccccc4)C(=O)N[C@@H](CCSC)C(=O)N[C@@H](CCCNC(=N)N)C(=O)N[C@@H](CCCCN)C(=O)N2)NC(=O)[C@H](CSSC[C@@H](C(=O)N[C@@H](CCCCN)C(=O)N[C@@H](Cc2ccc(O)cc2)C(=O)N[C@H](C(=O)N[C@@H](Cc2ccccc2)C(N)=O)C(C)C)NC(=O)[C@H](Cc2c[nH]c4ccccc24)NC(=O)[C@H](CCCCN)NC(=O)[C@H](Cc2c[nH]cn2)NC(=O)[C@H]([C@@H](C)O)NC(=O)[C@H](CCCNC(=N)N)NC(=O)[C@H](CO)NC3=O)NC(=O)[C@H](CCCCN)NC(=O)[C@H](CC(=O)O)NC(=O)[C@H](CC(N)=O)NC(=O)[C@H](CC(=O)O)NC(=O)[C@@H]2CCCN2C1=O` [[K(Me2)18]GpTx-1(1-34)] (H-DCLGFMRKCIPDNDKCC[Lys(Me2)]PNLVCSRTHKWCKYVF-NH2; disulfide 2-17, 9-23, 16-30): the IC50 in assay [3] (read-out: Nav1.7 Use IC50) came to 0.005 µM.
The compound `CC[C@H](C)[C@@H]1NC(=O)[C@@H]2CSSC[C@@H]3NC(=O)[C@H](C(C)C)NC(=O)[C@H](CC(C)C)NC(=O)[C@H](CC(N)=O)NC(=O)[C@@H]4CCCN4C(=O)[C@H](CCCNC(=N)N)NC(=O)[C@H](CSSC[C@H](NC(=O)[C@@H](N)CC(=O)O)C(=O)N[C@@H](CC(C)C)C(=O)NCC(=O)N(C)[C@@H](CC(C)C)C(=O)N[C@@H](CCSC)C(=O)N[C@@H](CCCNC(=N)N)C(=O)N[C@@H](CCCCN)C(=O)N2)NC(=O)[C@H](CSSC[C@@H](C(=O)N[C@@H](CCCCN)C(=O)N[C@@H](Cc2ccc(O)cc2)C(=O)N[C@H](C(=O)N[C@@H](Cc2ccccc2)C(N)=O)C(C)C)NC(=O)[C@H](Cc2c[nH]c4ccccc24)NC(=O)[C@H](CCCCN)NC(=O)[C@H](Cc2cnc[nH]2)NC(=O)[C@H]([C@@H](C)O)NC(=O)[C@H](CCCNC(=N)N)NC(=O)[C@H](CO)NC3=O)NC(=O)[C@H](CCCCN)NC(=O)[C@H](CC(=O)O)NC(=O)[C@H](CC(N)=O)NC(=O)[C@H](CC(=O)O)NC(=O)[C@@H]2CCCN2C1=O` [[NMeLeu5]GpTx-1(1-34)] came in with an IC50 in assay [3] (Nav1.7 Use IC50) of 0.026 µM.
On the same count and under the same terms, in the case of `CCC[C@@H]1NC(=O)CNC(=O)[C@H](CC(C)C)NC(=O)[C@@H](NC(=O)[C@@H](N)CC(=O)O)CSSC[C@@H]2NC(=O)[C@@H]3CSSC[C@@H](C(=O)N[C@@H](CCCCN)C(=O)N[C@@H](Cc4ccc(O)cc4)C(=O)N[C@H](C(=O)N[C@@H](Cc4ccccc4)C(N)=O)C(C)C)NC(=O)[C@H](Cc4c[nH]c5ccccc45)NC(=O)[C@H](CCCCN)NC(=O)[C@H](Cc4cnc[nH]4)NC(=O)[C@H]([C@@H](C)O)NC(=O)[C@H](CCCNC(=N)N)NC(=O)[C@H](CO)NC(=O)[C@H](CSSC[C@H](NC(=O)[C@H](CCCCN)NC(=O)[C@H](CCCNC(=N)N)NC(=O)[C@H](CCSC)NC1=O)C(=O)N[C@@H]([C@@H](C)CC)C(=O)N1CCC[C@H]1C(=O)N[C@@H](CC(=O)O)C(=O)N[C@@H](CC(N)=O)C(=O)N[C@@H](CC(=O)O)C(=O)N[C@@H](CCCCN)C(=O)N3)NC(=O)[C@H](C(C)C)NC(=O)[C@H](CC(C)C)NC(=O)[C@H](CC(N)=O)NC(=O)[C@@H]1CCCN1C(=O)[C@H](CCCNC(=N)N)NC2=O` [[Nva5]GpTx-1(1-34)] it was 0.038 µM; in that of `CC[C@H](C)[C@@H]1NC(=O)[C@@H]2CSSC[C@@H]3NC(=O)[C@H](C(C)C)NC(=O)[C@H](CC(C)C)NC(=O)[C@H](CC(N)=O)NC(=O)[C@@H]4CCCN4C(=O)[C@H](CCCNC(=N)N)NC(=O)[C@H](CSSC[C@H](NC(=O)[C@@H](N)CC(=O)O)C(=O)N[C@@H](CC(C)C)C(=O)NCC(=O)N[C@@H](C(C)(C)C)C(=O)N[C@@H](CCSC)C(=O)N[C@@H](CCCNC(=N)N)C(=O)N[C@@H](CCCCN)C(=O)N2)NC(=O)[C@H](CSSC[C@@H](C(=O)N[C@@H](CCCCN)C(=O)N[C@@H](Cc2ccc(O)cc2)C(=O)N[C@H](C(=O)N[C@@H](Cc2ccccc2)C(N)=O)C(C)C)NC(=O)[C@H](Cc2c[nH]c4ccccc24)NC(=O)[C@H](CCCCN)NC(=O)[C@H](Cc2cnc[nH]2)NC(=O)[C@H]([C@@H](C)O)NC(=O)[C@H](CCCNC(=N)N)NC(=O)[C@H](CO)NC3=O)NC(=O)[C@H](CCCCN)NC(=O)[C@H](CC(=O)O)NC(=O)[C@H](CC(N)=O)NC(=O)[C@H](CC(=O)O)NC(=O)[C@@H]2CCCN2C1=O` [[Tle5]GpTx-1(1-34)], 0.023 µM.

The record behind these values is patent publication US9340590B2 (priority 2011, dated 2016).
